According to US20110172232A1, “AMINOACYL PRODRUGS AS AN ACTIVE PHARMACEUTICAL INGREDIENT FOR THROMBOEMBOLIC DISORDERS” (Bayers Schering Pharma Aktiengesellschaft, priority 2007, published 2011):

What was measured:
[1] = Stability in buffer at various pH values (HPLC); format: physicochemical; details: buffer pH 4, 37° C., acetonitrile/buffer
Description: 0.25 mg of the test substance is weighed into a 2 ml HPLC vial and 0.5 ml of acetonitrile is added. The substance is dissolved by putting the sample vessel in an ultrasonic bath for about 10 seconds. Then 0.5 ml of the respective buffer solution is added, and the sample is again treated in the ultrasonic bath.
pH 4.0:1 liter of Millipore water is adjusted to pH 4.0 with 1 N hydrochloric acid;
pH 7.4: 90 g of sodium chloride, 13.61 g of potassium dihydrogen phosphate and 83.35 g of 1 M sodium hydroxide solution are made up to 1 liter with Millipore water and then diluted 1:10.
10 μl portions of the test solution are analyzed by HPLC for their content of unchanged test substance every hour over a period of 24 hours at 37° C. The percentage areas of the appropriate peaks are used for quantification.
Agilent 1100 with DAD (G1314A), binary pump (G1312A), autosampler (G1329A), column oven (G1316A), thermostat (G1330A); column: Kromasil 100 C18, 125 mm×4 mm, 5 μm; column temperature: 30° C.; mobile phase A: water+5 ml of perchloric acid/liter, mobile phase B: acetonitrile.

[2] = In vitro stability in rat plasma (HPLC detection); format: in vitro ADME; details: 37° C., read-out: half-life of degradation with release of the active ingredient compound (A)
Description: (§1) c) In Vitro Stability in Rat Plasma and Human Plasma (HPLC Detection):
(§2) 0.5 mg of substance is dissolved in 1 ml of dimethyl sulfoxide/water 1:1. 500 μl of this sample solution are mixed with 500 μl of rat plasma at 37° C. and shaken. A first sample (10 μl) is immediately taken for HPLC analysis. In the period up to 2 h after the start of incubation, further aliquots are taken after 2, 5, 10, 30, 60 and 90 min, and the contents of the respective test substance and of the active ingredient compound (A) liberated therefrom are determined.
(§3) Agilent 1100 with DAD (G1314A), binary pump (G1312A), autosampler (G1329A), column oven (G1316A), thermostat (G1330A); column: Kromasil 100 C18, 250 mm×4.6 mm, 5 μm; column temperature: 30° C.; mobile phase A: water+5 ml of perchloric acid/liter, mobile phase B: acetonitrile.

[3] = In vitro stability in human plasma (HPLC detection); format: in vitro ADME; details: 37° C., read-out: half-life of degradation with release of the active ingredient compound (A)
Description: as §1, §2, §3

time stable in solution at pH 4 [1]: more than 16 h
half-life at 0.25 mg/mL [2]: < 2 min
half-life at 0.25 mg/mL [3]: < 2 min
SMILES: CCCCNCCCC(=O)N(C[C@H]1CN(c2ccc(N3CCOCC3=O)cc2F)C(=O)O1)C(=O)c1ccc(Cl)s1 [Example 22, N-[4-(Butylamino)butanoyl]-5-chloro-N-({(5S)-2-oxo-3-[2-fluoro-4-(3-oxomorpholin-4-yl)phenyl]-1,3-oxazolidin-5-yl}methyl)thiophene-2-carboxamide]
